# Measured values reported in US20260022143A1, “Cyclic Peptide Inhibitors of IL-23” (JANSSEN PHARMACEUTICA NV, priority 2022, published 2026).
# Starred links: 1 amine or outer side, 2 acyl side, 3 side chain; linkers in the order of their positions; H or OH if unused. Positions of bridges follow the written chain, without caps; N, C: chain ends. Non-standard residues stand in square brackets, D forms with d. Residues, ends and D or L forms follow the SMILES beside them. Groups on a side chain read outwards from the residue. *: point of attachment. Me3N+(CH2)2O(CH2)2O(CH2)2CO = C[N+](C)(C)CCOCCOCCC(=O)*; X59 = C[N+](C)(C)CCN(CC*)S(=O)(=O)c1ccccc1[N+](=O)[O-]; CH2CH2OCH2CH2OCH2CH2NMe3+ = C[N+](C)(C)CCOCCOCC*; Trp(7-Me) = Cc1cccc2c(C[C@H](N)C(=O)O)c[nH]c12; Dab(NMeAc) = CC(=O)N(C)CC[C@H](N)C(=O)O; 2Nal = N[C@@H](Cc1ccc2ccccc2c1)C(=O)O; X19 = C[N+](C)(C)C[C@@H](CC(=O)O)N*; 3Pal = N[C@@H](Cc1cccnc1)C(=O)O; X54 = CC(=O)N(CC[N+](C)(C)C)CC*; Lys(Me) = CNCCCC[C@H](N)C(=O)O; Pen = CC(C)(S)[C@H](N)C(=O)O; Suc = O=C(CCC(=O)[*:2])[*:1]; X4 = COCCOCCCN(CCCOCCOC)CC*; X18 = C[N+]1(C)CCOC(C*)C1; Thp = NC1(C(=O)O)CCOCC1; Sar = CNCC(=O)O
# What was measured:
# [1] = Exposed Polar Surface Area (EPSA); type: physicochemical; details: SFC on Chirex 3014 column; sample 1 mM DMSO stock; read-out: EPSA
# How it was run: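 SFC retention on a Chirex 3014 (S-valine/(R)-1-(α-naphthyl)ethylamine) column at 35 °C, 4 mL/min, 14 MPa outlet, 5–60% methanol/20 mM ammonium formate gradient in CO2. Retention times converted to EPSA (Å²) via linear calibration with 8 standards; samples from 1 mM DMSO stock, run in duplicate.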
# IL-23R = molecular target: T1, IL-23R (Homo sapiens, UniProt Q5VWK5); test: IL23R Reporter Assay; type: cell-based; details: HEK293 cells containing IL-23R, IL-12RP1 and STAT-inducible firefly luciferase reporter; 10 ng/mL IL-23 (EC90); 5 h at 37° C.; read-out: IL23R Reporter Assay
# T1 construct: host or cells: HEK293
# T1 sequence (Q5VWK5 24-629): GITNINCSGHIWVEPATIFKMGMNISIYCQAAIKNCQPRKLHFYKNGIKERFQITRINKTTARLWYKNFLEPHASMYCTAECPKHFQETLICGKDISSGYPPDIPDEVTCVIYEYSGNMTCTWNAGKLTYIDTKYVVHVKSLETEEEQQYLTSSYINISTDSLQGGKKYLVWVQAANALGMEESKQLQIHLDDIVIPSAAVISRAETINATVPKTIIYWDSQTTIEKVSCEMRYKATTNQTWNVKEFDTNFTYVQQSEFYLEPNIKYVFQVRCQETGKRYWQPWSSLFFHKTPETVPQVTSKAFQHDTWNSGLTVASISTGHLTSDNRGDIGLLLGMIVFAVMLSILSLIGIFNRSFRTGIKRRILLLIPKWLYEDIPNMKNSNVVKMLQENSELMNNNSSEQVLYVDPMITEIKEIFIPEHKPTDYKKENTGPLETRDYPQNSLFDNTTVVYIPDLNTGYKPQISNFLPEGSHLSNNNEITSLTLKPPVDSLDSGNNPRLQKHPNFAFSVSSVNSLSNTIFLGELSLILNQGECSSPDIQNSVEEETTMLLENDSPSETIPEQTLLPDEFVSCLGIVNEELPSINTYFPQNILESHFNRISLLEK
SMILES,EPSA [1] [A^2],IC50 (IL-23R) [nM]
"CC(=O)N(C)CCCC[C@@H]1NC(=O)[C@H](Cc2c[nH]c3c(C)cccc23)NC(=O)[C@H]([C@@H](C)O)NC(=O)[C@H](CC(=O)N(C)C)NC(=O)[C@@H](NC(=O)CCOCCOCC[N+](C)(C)C)C(C)(C)SSC(C)(C)[C@@H](C(=O)N[C@@H](Cc2ccc(OCC3C[N+](C)(C)CCO3)cc2)C(=O)N[C@@H](Cc2ccc3ccccc3c2)C(=O)NC2(C(=O)N[C@@H](CCCCN(C)C(C)=O)C(=O)N[C@@H](CC(N)=O)C(=O)N[C@@H](Cc3cccnc3)C(=O)N(C)CC(=O)N(C)C)CCOCC2)NC1=O (stereo partly drawn) [compound 202, cPEG3aCO-Pen(3)-N(N(Me)2)-T-7MeW-K(NMeAc)-Pen(3)-DMPMF-2Nal-THP-K(NMeAc)-N-3Pya-Sar-CON(Me)2] ({Me3N+(CH2)2O(CH2)2O(CH2)2CO}-[Pen]D(NMe2)T[Trp(7-Me)][Lys(Me)](Ac)[Pen]Y(X18)[2Nal][Thp][Lys(Me)](Ac)N[3Pal][Sar]-NMe2; disulfide 1-6)",146,3.5
"COCCOCCCN(CCCOCCOC)CCOc1ccc(C[C@H](NC(=O)[C@H]2NC(=O)[C@H](CCCCN(C)C(C)=O)NC(=O)[C@H](Cc3c[nH]c4c(C)cccc34)NC(=O)[C@H]([C@@H](C)O)NC(=O)[C@H](CC(=O)N(C)C)NC(=O)[C@@H](NC(=O)CCOCCOCC[N+](C)(C)C)C(C)(C)SSC2(C)C)C(=O)N[C@@H](Cc2ccc3ccccc3c2)C(=O)NC2(C(=O)N[C@@H](CCCCN(C)C(C)=O)C(=O)N[C@@H](CC(N)=O)C(=O)N[C@@H](Cc3cccnc3)C(=O)N(C)CC(=O)N(C)C)CCOCC2)cc1 [compound 203, cPEG3aCO-Pen(3)-N(N(Me)2)-T-7MeW-K(NMeAc)-Pen(3)-AEF(BisMEP))-2Nal-THP-K(NMeAc)-N-3Pya-Sar-CON(Me)2] ({Me3N+(CH2)2O(CH2)2O(CH2)2CO}-[Pen]D(NMe2)T[Trp(7-Me)][Lys(Me)](Ac)[Pen]Y(X4)[2Nal][Thp][Lys(Me)](Ac)N[3Pal][Sar]-NMe2; disulfide 1-6)",135,1.6

# Other lines, results leading:
EPSA [1] [A^2],IC50 (IL-23R) [nM],SMILES
145,2.6,"CC(=O)N(C)CCCC[C@@H]1NC(=O)[C@H](Cc2c[nH]c3c(C)cccc23)NC(=O)[C@H]([C@@H](C)O)NC(=O)[C@H](CC(=O)N(C)C)NC(=O)[C@@H](NC(=O)CCOCCOCC[N+](C)(C)C)C(C)(C)SSC(C)(C)[C@@H](C(=O)N[C@@H](Cc2ccc(OCCN(CC[N+](C)(C)C)S(=O)(=O)c3ccccc3[N+](=O)[O-])cc2)C(=O)N[C@@H](Cc2ccc3ccccc3c2)C(=O)NC2(C(=O)N[C@@H](CCCCN(C)C(C)=O)C(=O)N[C@@H](CC(N)=O)C(=O)N[C@@H](Cc3cccnc3)C(=O)N(C)CC(=O)N(C)C)CCOCC2)NC1=O [compound 206, cPEG3aCO-Pen(3)-N(N(Me)2)-T-7MeW-K(NMeAc)-Pen(3)-AEF(NsCh)-2Nal-THP-K(NMeAc)-N-3Pya-Sar-CON(Me)2] ({Me3N+(CH2)2O(CH2)2O(CH2)2CO}-[Pen]D(NMe2)T[Trp(7-Me)][Lys(Me)](Ac)[Pen]Y(X59)[2Nal][Thp][Lys(Me)](Ac)N[3Pal][Sar]-NMe2; disulfide 1-6)"
139,3.2,"CC(=O)N(C)CCCC[C@@H]1NC(=O)[C@H](Cc2c[nH]c3c(C)cccc23)NC(=O)[C@H]([C@@H](C)O)NC(=O)[C@H](CC(=O)N(C)C)NC(=O)[C@@H](NC(=O)CCOCCOCC[N+](C)(C)C)C(C)(C)SSC(C)(C)[C@@H](C(=O)N[C@@H](Cc2ccc(OCCN(CC[N+](C)(C)C)C(C)=O)cc2)C(=O)N[C@@H](Cc2ccc3ccccc3c2)C(=O)NC2(C(=O)N[C@@H](CCCCN(C)C(C)=O)C(=O)N[C@@H](CC(N)=O)C(=O)N[C@@H](Cc3cccnc3)C(=O)N(C)CC(=O)N(C)C)CCOCC2)NC1=O [compound 207, cPEG3aCO-Pen(3)-N(N(Me)2)-T-7MeW-K(NMeAc)-Pen(3)-AEF(AcCh)-2Nal-THP-K(NMeAc)-N-3Pya-Sar-CON(Me)2] ({Me3N+(CH2)2O(CH2)2O(CH2)2CO}-[Pen]D(NMe2)T[Trp(7-Me)][Lys(Me)](Ac)[Pen]Y(X54)[2Nal][Thp][Lys(Me)](Ac)N[3Pal][Sar]-NMe2; disulfide 1-6)"
154,5.1,"CC(=O)N[C@H](CCCCNC(=O)CCC(=O)N[C@H](CC(=O)O)C[N+](C)(C)C)C(=O)N[C@@H]1C(=O)N[C@@H](CC(=O)N(C)C)C(=O)N[C@@H]([C@@H](C)O)C(=O)N[C@@H](Cc2c[nH]c3c(C)cccc23)C(=O)N[C@@H](CCCCN(C)C(C)=O)C(=O)N[C@H](C(=O)N[C@@H](Cc2ccc(OCCOCCOCC[N+](C)(C)C)cc2)C(=O)N[C@@H](Cc2ccc3ccccc3c2)C(=O)NC2(C(=O)N[C@@H](CCN(C)C(C)=O)C(=O)N[C@@H](CC(N)=O)C(=O)N[C@@H](Cc3cccnc3)C(=O)N(C)CC(=O)N(C)C)CCOCC2)C(C)(C)SSC1(C)C [compound 213, MeCO-k(d)-Pen(3)-N(N(Me)2)-T-7MeW-K(NMeAc)-Pen(3)-APEG3F-2Nal-THP-Dab(NMeAc)-N-3Pya-Sar-CON(Me)2] (Ac-[dK]([Suc-X19])[Pen]D(NMe2)T[Trp(7-Me)][Lys(Me)](Ac)[Pen]Y(CH2CH2OCH2CH2OCH2CH2NMe3+)[2Nal][Thp][Dab(NMeAc)]N[3Pal][Sar]-NMe2; disulfide 2-7)"
